Source: PMC5238559, “Biomimetic synthesis and HPLC–ECD analysis of the isomers of dracocephins A and B” (Beilstein Journal of Organic Chemistry, 2016)
Values after ≈ are worked out from the molar mass of the structure shown. Where two headings read alike, the source gives them in different places.

What was measured:
[1] = pKa determination by aqueous titrations; type: physicochemical; conditions: aqueous solution, phenolic hydroxy group
Procedure: (§1) n-octanol. From the n-octanol containing titrations the poKa (the apparent ionization constant in the presence of n-octanol) and then logP values were estimated and refined by a weighted non-linear least-squares procedure, where the aqueous pKa values (taken from aqueous titrations) were used as unrefined contributions. For each compound a minimum of three to six titrations at different phase volume ratios were measured, and the respective average logP values were calculated. logD values were also calculated by logP and pKa values using the Henderson– Hasselbalch equation. The relevant relationships between logP, pKa, and poKa, for mono- and multiprotic substances, including cases of ion-pair formation, have been described in detail earlier. […]

[2] = Cytotoxicity on SH-SY5Y cells (MTT); type: cell-based; conditions: human, undifferentiated SH-SY5Y neuroblastoma cells
Procedure: for 4 h. After the incubation, PAMPA sandwich plates are separated and compound concentrations in donor and acceptor solutions are determined by HPLC-DAD.
SH-SY5Y neuroblastoma was cultured in EMEM media supplemented with non-essential amino acids, 1 mM Na pyruvate and 10% inactivated fetal bovine serum, nystatin, 2 mM L-glutamine, 100 U penicillin and 0.1 mg streptomycin, purchased from Sigma. Cells were cultured at 37 °C and 5% CO2. […]
(§2) Cytotoxicity on SH-SY5Y cells: Cytotoxicity on SH-SY5Y cells was measured in an analogous manner as described in the literature. […]
(§3) were read after o/n incubation. Fifty percent inhibitory concentrations (IC50) were calculated using nonlinear regression curve fitting of log (inhibitor) versus normalized response and variable slope with a least squares (ordinary) fit of GraphPad Prism 5 software, for three independent samples.
Evaluation of compounds effect on rhodamine 123 accumulation: Rd123 concentration inside L5178PAR and L5178MDR cells was determined by flow cytometry.
Briefly, 2 × 10^6 cells/mL were treated with 2 and 20 μM of each compound and incubated for 10 min at rt. […] The fluorescence of the samples was measured by flow cytometry (Becton Dickinson FACScan, BD, U.S.). […]
Fluorescence activity ratio measures the capacity of inhibition (accumulation of Rd123) and it is equal to the ratio between the FL-1 values of the L5178MDR cells […]

[3] = tested on: P-glycoprotein (P-gp); experiment: Rhodamine 123 accumulation in P-gp transfected L5178MDR cells; type: cell-based; conditions: 2 and 20 μM of compound
Procedure: In connection with the BBB penetration studies, 2a–d and 3a–d were tested for their potential towards CNS cytotoxic activity on undifferentiated SH-SY5Y neuroblastoma cells. […] On the other hand, the possibility for neuroprotective activity could not be tested with the applied experimental setup. As an additional bioassay on compounds 2a–d and 3a–d, their potential to interfere with the function of P-glycoprotein (P-gp) was tested. By transporting a wide variety of compounds from the CNS back into the blood stream, P-gp is an important element of the BBB [16]. […]
(§4) for 4 h. After the incubation, PAMPA sandwich plates are separated and compound concentrations in donor and acceptor solutions are determined by HPLC-DAD. […]
as §2, §3
Evaluation of compounds effect on rhodamine 123 accumulation: Rd123 concentration inside L5178PAR and L5178MDR cells was determined by flow cytometry. […]

[4] = in vitro; type: in vitro ADME; conditions: pig, PAMPA, pH 7.4
Procedure: Physicochemical characterization of dracocephins A and B was also carried out. […] Similarly to this lipophilicity trend, the TPSA value of (±)-naringenin is lower than dracocephins A and B, however, there is no difference between the calculated TPSA values of 2a–d and 3a–d. […] Among these proton-dissociation constants, the lowest acidic pKa values are predominant in physiological environment, which is also indicated by the difference of log D values between pH 7.4 and pH 6.5. The blood–brain barrier (BBB) specific penetration of dracocephins isomers has also been studied by the PAMPA (parallel artificial membrane permeability assay)-BBB model system, which indicates passive diffusion of test compounds across the brain capillary endothelium. […]
n-octanol. […] For each compound a minimum of three to six titrations at different phase volume ratios were measured, and the respective average logP values were calculated. logD values were also calculated by logP and pKa values using the Henderson– Hasselbalch equation. […]
as §4, §2

[5] = DPPH radical scavenging test; conditions: microplate format
Procedure: Antioxidant activity: The radical scavenging capacity of dracocephins A and B were
tested in the microplate format of the 2,2-diphenyl-1-picrylhydrazyl (DPPH) assay.
Naringenin and quercetin were obtained from PhytoLab (Vestenbergsgreuth,
Germany), and used as controls. […]

[6] = logP determination by titrations in the presence of n-octanol; logD calculated from logP and pKa; type: physicochemical; conditions: n-octanol/water; for logP: lipophilicity of neutral species; for logD: calculated from logP and pKa by Henderson–Hasselbalch equation
Procedure: as §1

[7] = first value in cell, read-out: pKa (first, lowest acidic)
[8] = second value in cell, read-out: pKa (second) (converted)
[9] = third value in cell, read-out: pKa (third) (converted)

Row | pKa [1, 7] | pKa [1, 8] | pKa [1, 9] | Papp at 4 h, 100 µM [4] | IC50 DPPH radical scavenging [5] | logP [6] | logD ([6]; pH 6.5, read-out: log D6.5) | logD ([6]; pH 7.4, read-out: log D7.4) | Compound | IC50 at 48 h [2] | P-gp inhibition (rhodamine 123 accumulation) [3]
1 | 6.69 ± 0.01 | 9.47 | 12.3 | 1.1 ± 0.1 ×10⁻⁶ cm/s | > 200 µg/mL | 2.52 ± 0.02 | 2.31 | 1.74 | O=C1CCC(c2c(O)cc3c(c2O)C(=O)CC(c2ccc(O)cc2)O3)N1 (stereo not drawn) [2a–d, 6-(2”-pyrrolidinone-5”-yl)naringenin] | > 150 µM | none of the synthesized compounds inhibits this transporter
2 | 6.54 | 9.54 | 12 |  | > 200 µg/mL | 2.39 ± 0.02 | 2.12 | 1.51 | O=C1CCC(c2c(O)cc(O)c3c2OC(c2ccc(O)cc2)CC3=O)N1 (stereo not drawn) [3a–d, 8-(2”-pyrrolidinone-5”-yl)naringenin] | > 150 µM | none of the synthesized compounds inhibits this transporter
3 |  |  |  |  | 9.4 ± 0.6 µg/mL (≈ 31.1 µM) |  |  |  | O=c1c(O)c(-c2ccc(O)c(O)c2)oc2cc(O)cc(O)c12 [quercetin, reference compound] |  | 

Row | Compound | pKa [1, 7] | pKa [1, 8] | pKa [1, 9] | Papp at 4 h, 100 µM [4] | IC50 DPPH radical scavenging [5] | logP [6] | logD ([6]; pH 6.5, read-out: log D6.5) | logD ([6]; pH 7.4, read-out: log D7.4) | IC50 at 48 h [2] | P-gp inhibition (rhodamine 123 accumulation) [3]
4 | naringenin [(±)-1, reference compound] |  |  |  |  | > 200 µg/mL |  |  |  |  | 
